Test results: publication PMC9838390, “Discovery and biosynthesis of karnamicins as angiotensin converting enzyme inhibitors” (Nature Communications, 2023)
“And” between values parts separate entries of the source, which are not always exact repeats. Equal entries are not always repeated.

Assays:
KnmB1 [1] = assay: Hydrogen peroxide formation assay of KnmB1 and variants; format: biochemical, L. rhizosphaerae NEAU-A2; conditions: 30 °C, average of 3
Procedure: Hydrogen peroxide formation assay and NADPH oxidation
The hydrogen peroxide formed from KnmB1, KnmB2 and their variants were measured using the Hydrogen Peroxide Assay Kit (Beyotime Industrial Co. Ltd, Shanghai, China)4-5. 5–100 µL of enzyme reaction mixture was added to 100 µL of working reagent (S0038-1). The mixture was incubated for 30 min at 25 °C, at which time the absorbance at 560 nm was measured by NanoDrop 2000c (Fisher Scientific). […]
(§1) Spectral data for new compounds […]
Supplementary Figure 131. H2O2 generation and NADPH oxidation for KnmB2, KnmB1 and their variants. (a) Hydrogen peroxide formation of KnmB2 and variants. […]
(b) Hydrogen peroxide formation of KnmB1 and variants. Reaction conditions: 100 µL system containing 50 mM Tris-HCl buffer (pH 7.5), 1 mM NADPH, 16 μM KnmB2, 17 μM KnmB1 or variants, 0.1 mM compound 24,1 mM SAM, and 2 […]
(1 picture or pasted object on this page, not shown here) […]
μM KnmF at 30 °C for 3h. (c) Hydrogen peroxide formation of KnmB1 and variants.
Reaction conditions: 100µL system containing 50 mM Tris-HCl buffer (pH 7.5), 0.3 mM NADPH, and 6 μM KnmB1 or variants, or 0.1 mM 24 at 30 °C for 30 min. […]
(§2) 2 μM KnmB2 or variants, or 0.1 mM substrate 24/32. […]
(§3) Source data are provided as a Source Data file. […]

KnmB1 [2] = assay: NADPH oxidation of KnmB1 and variants (340 nm); format: biochemical, L. rhizosphaerae NEAU-A2; conditions: KnmB1 + compound
Procedure: Hydrogen peroxide formation assay and NADPH oxidation […]
NADPH detection was carried out in the cuvette by NanoDrop 2000c (Fisher Scientific). NADPH signal at 340 nm was monitored in time using 6220 M–1 cm–1 as […]
as §1
Reaction conditions: 50 mM Tris-HCl buffer (pH 7.5), 0.15 mM NADPH, and 2 μM KnmB1 or KnmB2. (e) NADPH oxidation of KnmB1 and variants. (f) NADPH oxidation of KnmB1 in the presence 24/32/36. (g) NADPH oxidation of KnmB1 and variants in the presence 24. Reaction conditions (e-g) for KnmB1 and their variants: 50 mM Tris-HCl buffer (pH 7.5), 0.15 mM NADPH, and 6 μM KnmB1 or variants, or 0.1 mM substrate 24/32/36. […]
as §2, §3

For `COc1cc(-c2csc(CCCC(C)=O)n2)nc(C(N)=O)c1O` [Compound 36], the “hydrogen peroxide formation of KnmB1 (absorbance UV λ=560 nm), average value” (KnmB1 [1]; Fig. S131b, 1 mM NADPH, 17 μM KnmB1, 0.1 mM compound, 3 h) was 0.0940, the “hydrogen peroxide formation of KnmB1 (absorbance UV λ=560 nm), average value” (KnmB1 [1]; Fig. S131c, 0.3 mM NADPH, 6 μM KnmB1, 0.1 mM compound, 30 min) was 0.0678 and the “NADPH oxidation of KnmB1 in the presence of compound (replicates 1, 2, 3)” value (“NADPH oxidation of KnmB1 … (replicates 1, 2, 3)” below) (KnmB1 [2]; Time 0) was 0.0000 µM. The “NADPH oxidation of KnmB1 in the presence of compound, average value” (“NADPH oxidation of KnmB1 … average value” for short) (KnmB1 [2]; Time 0) was 0.0000 µM, the “NADPH oxidation of KnmB1 … (replicates 1, 2, 3)” value (KnmB1 [2]; Time 1) was 2.6688 µM and 1.0450 µM and 0.7235 µM and the “NADPH oxidation of KnmB1 … average value” (KnmB1 [2]; Time 1) was 1.4791 µM. The “NADPH oxidation of KnmB1 … (replicates 1, 2, 3)” value (KnmB1 [2]; Time 2) was 3.7942 µM and 2.2669 µM and 1.4470 µM, the “NADPH oxidation of KnmB1 … average value” (KnmB1 [2]; Time 2) was 2.5027 µM and the “NADPH oxidation of KnmB1 … (replicates 1, 2, 3)” value (KnmB1 [2]; Time 3) was 3.7460 µM and 2.5241 µM and 4.3730 µM. The “NADPH oxidation of KnmB1 … average value” (KnmB1 [2]; Time 3) was 3.5477 µM, the “NADPH oxidation of KnmB1 … (replicates 1, 2, 3)” value (KnmB1 [2]; Time 4) was 4.9196 µM and 2.5241 µM and 5.4662 µM and the “NADPH oxidation of KnmB1 … average value” (KnmB1 [2]; Time 4) was 4.3033 µM. The “NADPH oxidation of KnmB1 … (replicates 1, 2, 3)” value (KnmB1 [2]; Time 5) was 4.7428 µM and 3.0064 µM and 5.6752 µM, the “NADPH oxidation of KnmB1 … average value” (KnmB1 [2]; Time 5) was 4.4748 µM and the “NADPH oxidation of KnmB1 … (replicates 1, 2, 3)” value (KnmB1 [2]; Time 8) was 5.8360 µM and 3.0064 µM and 8.0225 µM. The “NADPH oxidation of KnmB1 … average value” (KnmB1 [2]; Time 8) was 5.6217 µM, the “NADPH oxidation of KnmB1 … (replicates 1, 2, 3)” value (KnmB1 [2]; Time 10) was 7.2669 µM and 6.4791 µM and 10.8521 µM and the “NADPH oxidation of KnmB1 … average value” (KnmB1 [2]; Time 10) was 8.1994 µM. The “NADPH oxidation of KnmB1 … (replicates 1, 2, 3)” value (KnmB1 [2]; Time 15) was 7.5080 µM and 6.4791 µM and 13.8264 µM, the “NADPH oxidation of KnmB1 … average value” (KnmB1 [2]; Time 15) was 9.2712 µM and the “NADPH oxidation of KnmB1 … (replicates 1, 2, 3)” value (KnmB1 [2]; Time 20) was 10.4502 µM and 12.1865 µM and 17.0257 µM. The “NADPH oxidation of KnmB1 … average value” (KnmB1 [2]; Time 20) was 13.2208 µM, the “NADPH oxidation of KnmB1 … (replicates 1, 2, 3)” value (KnmB1 [2]; Time 30) was 12.4116 µM and 12.1865 µM and 21.2701 µM and the “NADPH oxidation of KnmB1 … average value” (KnmB1 [2]; Time 30) was 15.2894 µM. The “NADPH oxidation of KnmB1 … (replicates 1, 2, 3)” value (KnmB1 [2]; Time 40) was 13.9068 µM and 22.9261 µM and 27.0579 µM, the “NADPH oxidation of KnmB1 … average value” (KnmB1 [2]; Time 40) was 21.2969 µM and the “NADPH oxidation of KnmB1 … (replicates 1, 2, 3)” value (KnmB1 [2]; Time 60) was 18.0547 µM and 22.9261 µM and 35.3698 µM. The “NADPH oxidation of KnmB1 … average value” (KnmB1 [2]; Time 60) was 25.4502 µM.
